Results: patent US8574563B2 (Bristol-Myers Squibb Company, priority 2006, dated 2013)

test system: HCV 1b-377-neo replicon cells; test: HCV replicon assay, HCV 1b-377-neo replicon cells (1b FRET); type: cell-based, Hepatitis C virus genotype 1b; conditions: Hepatitis C virus, HCV 1b-377-neo replicon cells; HCV 1b genotype; read-out: EC50 range against HCV 1b (Table 2, Range)
Method in brief: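 FRET-based replicon assay in HCV 1b-377-neo cells, including a comparison line carrying the NS5A Y2065H mutation that confers resistance to a reference compound.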

Row | Structure (SMILES) | EC50
1 | CCC(C)[C@H](NC)C(=O)N1CCC[C@H]1c1nc(-c2ccc(-c3ccc(-c4cnc([C@@H]5CCCN5C(=O)[C@@H](NC)C(C)CC)[nH]4)cc3)cc2)c[nH]1 (stereo partly drawn) [Example F33, (2S)-N,3-dimethyl-1-((2S)-2-(4-(4′-(2-((2S)-1-((2S)-3-methyl-2-(methylamino)pentanoyl)-2-pyrrolidinyl)-1H-imidazol-5-yl)-4-biphenylyl)-1H-imidazol-2-yl)-1-pyrrolidinyl)-1-oxo-2-pentanamine] | 100 to 999 nM
2 | CCN(CC)[C@@H](C(=O)N1CCC[C@H]1c1ncc(-c2ccc(-c3ccc(-c4cnc([C@@H]5CCCN5C(=O)[C@H](Cc5c[nH]nn5)NC(=O)OC)[nH]4)cc3)cc2)[nH]1)c1ccccc1 [cj-32, methyl ((1S)-2-((2S)-2-(5-(4′-(2-((2S)-1-((2R)-2-(diethylamino)-2-phenylacetyl)-2-pyrrolidinyl)-1H-imidazol-5-yl)-4-biphenylyl)-1H-imidazol-2-yl)-1-pyrrolidinyl)-2-oxo-1-(1H-1,2,3-triazol-4-ylmethyl)ethyl)carbamate] | 0.001 to 0.999 nM
3 | CO[C@@H](C(=O)N1CCC[C@H]1c1ncc(-c2ccc(-c3ccc(-c4cnc([C@@H]5CCCN5C(=O)[C@@H](c5ccccc5F)N(C)C)[nH]4)cc3)cc2)[nH]1)c1ccccc1 [Example 107-32, (1R)-1-(2-fluorophenyl)-2-((2S)-2-(5-(4′-(2-((2S)-1-((2R)-2-methoxy-2-phenylacetyl)-2-pyrrolidinyl)-1H-imidazol-5-yl)-4-biphenylyl)-1H-imidazol-2-yl)-1-pyrrolidinyl)-N,N-dimethyl-2-oxoethanamine] | 0.001 to 0.999 nM
4 | CN(C)C(C(=O)N1CCC[C@H]1c1ncc(-c2ccc(-c3ccc(-c4cnc([C@@H]5CCCN5C(=O)[C@@H](c5ccccc5)N(C)C)[nH]4)cc3)cc2)[nH]1)c1ccccn1 (stereo partly drawn) [Example 94-46, 2-((2S)-2-(5-(4′-(2-((2S)-1-((2R)-2-(dimethylamino)-2-phenylacetyl)-2-pyrrolidinyl)-1H-imidazol-5-yl)-4-biphenylyl)-1H-imidazol-2-yl)-1-pyrrolidinyl)-N,N-dimethyl-2-oxo-1-(2-pyridinyl)ethanamine] | 0.001 to 0.999 nM
5 | CC(C)CC(=O)N1[C@@H](C)CC[C@H]1c1nc(-c2ccc(-c3ccc(-c4c[nH]c([C@@H]5CC[C@H](C)N5C(=O)CC(C)C)n4)cc3)cc2)c[nH]1 [Example M158, 4,4′-(4,4′-biphenyldiyl)bis(2-((2S,5S)-5-methyl-1-(3-methylbutanoyl)-2-pyrrolidinyl)-1H-imidazole)] | 1 to 99 nM
6 | CN1CCC[C@H]1C(=O)N[C@@H](C(=O)N1CCC[C@H]1c1ncc(-c2ccc(-c3ccc(-c4cnc([C@@H]5CCCN5C(=O)[C@H](NC(=O)[C@@H]5CCCN5C)c5ccccc5)[nH]4)cc3)cc2)[nH]1)c1ccccc1 [Example 25-3, (2S,2′S)-N,N′-(4,4′-biphenyldiylbis(1H-imidazole-5,2-diyl(2S)-2,1-pyrrolidinediyl((1R)-2-oxo-1-phenyl-2,1-ethanediyl)))bis(1-methyl-2-pyrrolidinecarboxamide)] | 0.001 to 0.999 nM
7 | CCN(CC)[C@@H](C(=O)N1CCC[C@H]1c1ncc(-c2ccc(-c3ccc(-c4cnc([C@@H]5CCCN5C(=O)[C@H]5CC[C@@H](NC(=O)OC)C5)[nH]4)cc3)cc2)[nH]1)c1ccccc1 [cj-60, methyl ((1R,3S)-3-(((2S)-2-(5-(4′-(2-((2S)-1-((2R)-2-(diethylamino)-2-phenylacetyl)-2-pyrrolidinyl)-1H-imidazol-5-yl)-4-biphenylyl)-1H-imidazol-2-yl)-1-pyrrolidinyl)carbonyl)cyclopentyl)carbamate] | 0.001 to 0.999 nM
8 | COC(=O)N[C@@H](C(=O)N1CCC[C@H]1c1ncc(-c2ccc(-c3ccc(-c4cnc([C@@H]5CCCN5C(=O)[C@H](NC(=O)OC)c5ccccc5)[nH]4)cn3)cc2)[nH]1)c1ccccc1 [Example 134, methyl ((1R)-2-((2S)-2-(5-(6-(4-(2-((2S)-1-((2R)-2-((methoxycarbonyl)amino)-2-phenylacetyl)-2-pyrrolidinyl)-1H-imidazol-5-yl)phenyl)-3-pyridinyl)-1H-imidazol-2-yl)-1-pyrrolidinyl)-2-oxo-1-phenylethyl)carbamate] | 0.001 to 0.999 nM
9 | COC(=O)N[C@H](C(=O)N1CCC[C@H]1c1ncc(-c2ccc(-c3ccc(-c4cnc([C@@H]5CCCN5C(=O)[C@@H](NC(=O)OC)C(C)(C)O)[nH]4)cc3)cc2)[nH]1)C(C)C [Example M105] | 1 to 99 nM
10 | CC1(O)CCN([C@@H](C(=O)N2CCC[C@H]2c2ncc(-c3ccc(-c4ccc(-c5cnc([C@@H]6CCCN6C(=O)[C@@H](c6ccccc6)N6CCCCC6)[nH]5)cc4)cc3)[nH]2)c2ccccc2)CC1 [Example 107-2, 4-methyl-1-((1R)-2-oxo-1-phenyl-2-((2S)-2-(5-(4′-(2-((2S)-1-((2R)-2-phenyl-2-(1-piperidinyl)acetyl)-2-pyrrolidinyl)-1H-imidazol-5-yl)-4-biphenylyl)-1H-imidazol-2-yl)-1-pyrrolidinyl)ethyl)-4-piperidinol] | 0.001 to 0.999 nM
11 | Cn1cncc1C(=O)N[C@@H](C(=O)N1CCC[C@H]1c1ncc(-c2ccc(-c3ccc(-c4c[nH]c([C@@H]5CCCN5C(=O)[C@H]5CCCO5)n4)cc3)cc2)[nH]1)c1ccccc1 [Example 120-5, 1-methyl-N-((1R)-2-oxo-1-phenyl-2-((2S)-2-(5-(4′-(2-((2S)-1-((2R)-tetrahydro-2-furanylcarbonyl)-2-pyrrolidinyl)-1H-imidazol-4-yl)-4-biphenylyl)-1H-imidazol-2-yl)-1-pyrrolidinyl)ethyl)-1H-imidazole-5-carboxamide] | 1 to 99 nM
12 | COC(=O)N[C@@H](CC(=O)N1CCC[C@H]1c1ncc(-c2ccc(-c3ccc(-c4cnc([C@@H]5CCCN5C(=O)C[C@@H](Cc5cccs5)NC(=O)OC)[nH]4)cc3)cc2)[nH]1)Cc1cccs1 [cj-138, dimethyl (4,4′-biphenyldiylbis(1H-imidazole-5,2-diyl(2S)-2,1-pyrrolidinediyl((2S)-4-oxo-1-(2-thienyl)-4,2-butanediyl)))biscarbamate] | 1000 to 10000 nM
13 | CCN(CC)[C@@H](C(=O)N1CCC[C@H]1c1ncc(-c2ccc(-c3ccc(-c4cnc([C@@H]5CCCN5C(=O)[C@H](NC(=O)OC)c5ccccc5)[nH]4)c(F)c3)cc2)[nH]1)c1ccccc1 [Example D37, methyl ((1R)-2-((2S)-2-(5-(4′-(2-((2S)-1-((2R)-2-(diethylamino)-2-phenylacelyl)-2-pyrrolidinyl)-1H-imidazol-5-yl)-3-fluoro-4-biphenylyl)-1H-imidazol-2-yl)-1-pyrrolidinyl)-2-oxo-1-phenylethyl)carbamate] | 0.001 to 0.999 nM
14 | CCN(CC)[C@H](C)C(=O)N1CCC[C@H]1c1ncc(-c2ccc(-c3ccc(-c4cnc([C@@H]5CCCN5C(=O)[C@H](NC(=O)OC)c5ccccc5)[nH]4)c(F)c3)cc2F)[nH]1 [Example D63, methyl ((1R)-2-((2S)-2-(5-(4′-(2-((2S)-1-(N,N-diethyl-D-alanyl)-2-pyrrolidinyl)-1H-imidazol-5-yl)-3,3′-difluoro-4-biphenylyl)-1H-imidazol-2-yl)-1-pyrrolidinyl)-2-oxo-1-phenylethyl)carbamate] | 0.001 to 0.999 nM
15 | CN(C)[C@@H](C(=O)N1CC(F)(F)C[C@H]1c1ncc(-c2ccc(-c3ccc(-c4cnc([C@@H]5CC(F)(F)CN5C(=O)[C@@H](c5ccccc5)N(C)C)[nH]4)cc3)cc2)[nH]1)c1ccccc1 [OL-8, (1R,1′R)-2,2′-(4,4′-biphenyldiylbis(1H-imidazole-4,2-diyl((2S)-4,4-difluoro-2,1-pyrrolidinediyl)))bis(N,N-dimethyl-2-oxo-1-phenylethanamine)] | 0.001 to 0.999 nM
16 | COC(=O)N[C@@H](C)C(=O)N1CCC[C@H]1c1ncc(-c2ccc(-c3ccc(-c4cnc([C@@H]5CCCN5C(=O)[C@H](Cc5cccnc5)NC(=O)OC)[nH]4)cc3)cc2)[nH]1 [cj-85, methyl ((1S)-2-((2S)-2-(5-(4′-(2-((2S)-1-(N-(methoxycarbonyl)-L-alanyl)-2-pyrrolidinyl)-1H-imidazol-5-yl)-4-biphenylyl)-1H-imidazol-2-yl)-1-pyrrolidinyl)-2-oxo-1-(3-pyridinylmethyl)ethyl)carbamate] | 0.001 to 0.999 nM
17 | CN(C)[C@@H](C(=O)N1CCC[C@H]1c1ncc(-c2ccc(-c3ccc(-c4cnc([C@@H]5CCCN5C(=O)Cc5cn(C)cn5)[nH]4)cc3)cc2)[nH]1)c1ccccc1 [Example 88, (1R)-N,N-dimethyl-2-((2S)-2-(5-(4′-(2-((2S)-1-((1-methyl-1H-imidazol-4-yl)acetyl)-2-pyrrolidinyl)-1H-imidazol-5-yl)-4-biphenylyl)-1H-imidazol-2-yl)-1-pyrrolidinyl)-2-oxo-1-phenylethanamine] | 0.001 to 0.999 nM
18 | CN(C)C(C(=O)N1CCC[C@H]1c1ncc(-c2ccc(-c3ccc(-c4cnc([C@@H]5CCCN5C(=O)[C@@H](c5ccccc5)N(C)C)[nH]4)cc3)cc2)[nH]1)c1ccc(Cl)nc1 (stereo partly drawn) [Example 94-44, 1-(6-chloro-3-pyridinyl)-2-((2S)-2-(5-(4′-(2-((2S)-1-((2R)-2-(dimethylamino)-2-phenylacetyl)-2-pyrrolidinyl)-1H-imidazol-5-yl)-4-biphenylyl)-1H-imidazol-2-yl)-1-pyrrolidinyl)-N,N-dimethyl-2-oxoethanamine] | 0.001 to 0.999 nM
19 | COC(=O)N[C@H](C(=O)N1CCC[C@H]1c1ncc(-c2ccc(-c3ccc(-c4c[nH]c([C@@H]5CCCN5C(=O)[C@@H](NC(=O)OC)C5CC5)n4)c(F)c3)cc2F)[nH]1)C(C)C [Example D55, methyl ((1S)-1-cyclopropyl-2-((2S)-2-(5-(3,3,-difluoro-4′-(2-((2S)-1-(N-(methoxycarbonyl)-L-valyl)-2-pyrrolidinyl)-1H-imidazol-5-yl)-4-biphenylyl)-1H-imidazol-2-yl)-1-pyrrolidinyl)-2-oxoethyl)carbamate] | 0.001 to 0.999 nM
20 | CCN(CC)[C@@H](C(=O)N1CCC[C@H]1c1ncc(-c2ccc(-c3ccc(-c4cnc([C@@H]5CCCN5C(=O)[C@H](Cc5ccccn5)NC(=O)OC)[nH]4)cc3)cc2)[nH]1)c1ccccc1 [cj-68, methyl ((1S)-2-((2S)-2-(5-(4′-(2-((2S)-1-((2R)-2-(diethylamino)-2-phenylacetyl)-2-pyrrolidinyl)-1H-imidazol-5-yl)-4-biphenylyl)-1H-imidazol-2-yl)-1-pyrrolidinyl)-2-oxo-1-(2-pyridinylmethyl)ethyl)carbamate] | 0.001 to 0.999 nM
